According to patent US20240270821A1, “GIP/GLP1/GCG TRI-RECEPTOR AGONISTS AND USES THEREOF” (priority 2023, published 2024):
Like-named read-outs stand apart in the source and are kept apart here. Starred links: 1 amine or outer side, 2 acyl side, 3 side chain; linkers in the order of their positions; H or OH if unused. Non-standard residues stand in square brackets, D forms with d. Residues, ends and D or L forms follow the SMILES beside them. Groups on a side chain read outwards from the residue. No end group written: not given here. *: point of attachment. C18 diacid = O=C(O)CCCCCCCCCCCCCCCCC(=O)*; αMePhe(2-F) = C[C@](N)(Cc1ccccc1F)C(=O)O; γGlu = O=C(O)[C@H](CCC(=O)[*:2])N[*:1]; αMe4Pal = C[C@](N)(Cc1ccncc1)C(=O)O; αMeY = C[C@](N)(Cc1ccc(O)cc1)C(=O)O; αMeF = C[C@](N)(Cc1ccccc1)C(=O)O; 4Pal = N[C@@H](Cc1ccncc1)C(=O)O; αMeL = CC(C)C[C@](C)(N)C(=O)O; αMeS = C[C@](N)(CO)C(=O)O; Orn = NCCC[C@H](N)C(=O)O; AEEA = NCCOCCOCC(=O)O; Aib = CC(C)(N)C(=O)O

Columns and labels:
Type in all cases: cell-based
human GcgR = human GcgR (Homo sapiens, UniProt P47871); assay: Functional cAMP activity in the presence of 1% HSA; conditions: read-out: cAMP Rel EC50, hGcgR
Sequence of human GcgR (P47871 26-477): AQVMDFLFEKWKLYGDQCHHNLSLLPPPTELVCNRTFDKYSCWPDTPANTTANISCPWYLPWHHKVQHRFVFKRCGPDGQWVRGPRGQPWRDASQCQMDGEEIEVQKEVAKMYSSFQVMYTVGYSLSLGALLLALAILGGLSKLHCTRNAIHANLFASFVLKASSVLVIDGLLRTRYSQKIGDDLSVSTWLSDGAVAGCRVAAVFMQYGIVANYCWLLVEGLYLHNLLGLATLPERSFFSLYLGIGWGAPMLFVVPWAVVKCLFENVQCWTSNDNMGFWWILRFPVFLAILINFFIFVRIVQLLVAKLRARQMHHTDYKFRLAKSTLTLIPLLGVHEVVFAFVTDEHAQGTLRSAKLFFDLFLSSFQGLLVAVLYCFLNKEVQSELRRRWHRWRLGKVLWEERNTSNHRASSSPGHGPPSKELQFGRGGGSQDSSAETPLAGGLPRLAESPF

hGIPR [1] = target: T1, hGIPR (Homo sapiens, UniProt P48546); assay: Functional cAMP activity in the presence of 1% HSA; conditions: read-out: cAMP Rel EC50, hGIPR
T1 sequence (P48546 22-466): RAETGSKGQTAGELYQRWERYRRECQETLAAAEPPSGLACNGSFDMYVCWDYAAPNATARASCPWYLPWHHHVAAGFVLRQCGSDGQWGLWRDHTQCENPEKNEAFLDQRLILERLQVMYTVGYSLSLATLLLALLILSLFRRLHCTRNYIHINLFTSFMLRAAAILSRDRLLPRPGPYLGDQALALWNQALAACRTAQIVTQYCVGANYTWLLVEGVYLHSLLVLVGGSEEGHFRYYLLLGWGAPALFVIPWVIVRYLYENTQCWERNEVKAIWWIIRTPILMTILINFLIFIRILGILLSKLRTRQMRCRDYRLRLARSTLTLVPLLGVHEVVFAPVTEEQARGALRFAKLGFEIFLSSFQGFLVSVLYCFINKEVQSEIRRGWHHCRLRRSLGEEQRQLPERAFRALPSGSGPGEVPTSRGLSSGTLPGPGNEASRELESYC

hGLP-1R [2] = target: T2, hGLP-1R (Homo sapiens, UniProt P43220); assay: Functional cAMP activity in the presence of 1% HSA; conditions: read-out: cAMP Rel EC50, hGLP-1R
T2 sequence (P43220 24-463): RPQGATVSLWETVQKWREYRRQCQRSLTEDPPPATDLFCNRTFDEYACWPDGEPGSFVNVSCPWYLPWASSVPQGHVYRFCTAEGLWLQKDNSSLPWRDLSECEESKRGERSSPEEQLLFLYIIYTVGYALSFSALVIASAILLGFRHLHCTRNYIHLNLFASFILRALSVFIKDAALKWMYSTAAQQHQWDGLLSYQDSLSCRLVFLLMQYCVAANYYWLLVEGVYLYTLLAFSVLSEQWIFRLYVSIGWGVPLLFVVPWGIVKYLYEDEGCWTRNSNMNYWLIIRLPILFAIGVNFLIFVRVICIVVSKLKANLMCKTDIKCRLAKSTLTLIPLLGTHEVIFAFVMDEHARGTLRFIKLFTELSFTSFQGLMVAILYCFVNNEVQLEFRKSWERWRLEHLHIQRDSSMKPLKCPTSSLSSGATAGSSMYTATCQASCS

hGLP-1R [3] = target: T2, hGLP-1R; assay: Functional cAMP activation in the presence of 0.1% casein (no HSA); conditions: read-out: Relative cAMP EC50, hGLP-1R;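 for Relative cAMP EC50, hGIPR: intracellular cAMP rise after 30 min at 37 °C read by HTRF against a standard curve, scaled between buffer alone (0%) and top control ligand concentration (100%), four-parameter fit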;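 for Relative cAMP EC50, hGLP-1R: intracellular cAMP rise after 30 min at 37 °C read by HTRF, normalized between buffer only (0%) and maximal control ligand (100%), four-parameter variable-slope fit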;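 for Relative cAMP EC50, hGcgR: intracellular cAMP rise after 30 min at 37 °C, read by HTRF against a cAMP standard curve, scaled from buffer only (0%) to maximal control ligand response (100%)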
hGIPR [4] = target: T1, hGIPR; assay: as above; conditions: read-out: Relative cAMP EC50, hGIPR
hGcgR = hGcgR (Homo sapiens, UniProt P47871); assay: as above; conditions: read-out: Relative cAMP EC50, hGcgR;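 note: intracellular cAMP rise after 30 min at 37 °C, read by HTRF against a cAMP standard curve, scaled from buffer only (0%) to maximal control ligand response (100%)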
Sequence of hGcgR (P47871 26-477): as the sequence (P47871 26-477) above

[5] = HEK-293 clonal cell line, 1% HSA, geometric mean of relative EC50
[6] = in the presence of 0.1% casein (no HSA), geometric mean of relative EC50
[7] = in the presence of 0.1% casein (no HSA), geometric mean

Compound | EC50 (human GcgR) [nM] | EC50 (hGIPR [1]) [nM] | EC50 (hGLP-1R [2]) [nM] | EC50 (hGLP-1R [3]) [nM] | EC50 (hGIPR [4]) [nM] | EC50 (hGcgR) [nM] | EC50 (human GcgR; [5]) [nM] | EC50 (hGIPR [1]; [5]) [nM] | EC50 (hGLP-1R [2]; [5]) [nM] | EC50 (hGLP-1R [3]; [6]) [nM] | EC50 (hGIPR [4]; [6]) [nM] | EC50 (hGcgR; [6]) [nM] | EC50 (hGLP-1R [3]; [7]) [nM] | EC50 (hGIPR [4]; [7]) [nM] | EC50 (hGcgR; [7]) [nM]
CC[C@H](C)[C@H](NC(=O)[C@H](Cc1ccccc1)NC(=O)[C@H](C)NC(=O)C(C)(C)NC(=O)[C@H](CCC(N)=O)NC(=O)[C@H](C)NC(=O)[C@H](CCCCNC(=O)CC[C@H](NC(=O)CC[C@H](NC(=O)CCCCCCCCCCCCCCCCC(=O)O)C(=O)O)C(=O)O)NC(=O)[C@H](CCCCN)NC(=O)[C@H](CC(=O)O)NC(=O)[C@H](CC(C)C)NC(=O)[C@H](CC(C)C)NC(=O)[C@@H](NC(=O)[C@H](CO)NC(=O)[C@H](Cc1ccc(O)cc1)NC(=O)[C@H](CC(=O)O)NC(=O)[C@H](CO)NC(=O)[C@@H](NC(=O)[C@](C)(Cc1ccccc1F)NC(=O)[C@@H](NC(=O)CNC(=O)[C@H](CCC(N)=O)NC(=O)C(C)(C)NC(=O)[C@@H](N)Cc1ccc(O)cc1)[C@@H](C)O)[C@@H](C)O)[C@@H](C)CC)C(=O)N[C@@H](CCC(=O)O)C(=O)N[C@@H](Cc1ccc(O)cc1)C(=O)N[C@@H](CC(C)C)C(=O)N[C@@H](CCC(=O)O)C(=O)N[C@@H](CCC(=O)O)C(=O)NCC(=O)NCC(=O)N1CCC[C@H]1C(=O)N[C@@H](CO)C(=O)N[C@@H](CO)C(=O)NCC(=O)N[C@@H](C)C(=O)N1CCC[C@H]1C(=O)N1CCC[C@H]1C(=O)N1CCC[C@H]1C(=O)N[C@@H](CO)C(N)=O [Example 406] (H-Y[Aib]QGT[αMePhe(2-F)]TSDYSILLDKK([γGlu-γGlu-C18 diacid])AQ[Aib]AFIEYLEEGGPSSGAPPPS-NH2) | 254 | 10.5 | 27.8 | 0.208 | 0.0233 | 1.23 | – | – | – | – | – | – | – | – | –
H-Y[Aib]QGT[αMePhe(2-F)]TSD[4Pal]SI[αMeL]LDKK([γGlu-γGlu-C18 diacid])AQ[Aib][Orn]FIEYLEEGGPSSGEPPPSGSEE-NH2 [Example 635] | – | – | – | – | – | – | 753 | 2.7 | 53.9 | 0.625 | 0.0405 | 7.09 | – | – | –
H-Y[Aib]QGT[αMePhe(2-F)]TSD[4Pal][αMeS]I[αMeL]LD[Orn]K([γGlu-γGlu-C18 diacid])AQ[αMe4Pal]EFI[dE][αMeY]LIEGGPSSGAPPPSGSE-NH2 [Example 717] | 130 | 0.561 | 21.4 | 0.283 | 0.00721 | 1.14 | – | – | – | – | – | – | – | – | –
H-Y[Aib]QGTFTSD[4Pal]S[Orn][αMeL]LDKK([AEEA-γGlu-C18 diacid])AQ[Aib]AFIEYLLE[dA]GPSSGAPPPSG[4Pal]-NH2 [Example 274] | 1120 | 27.6 | 560 | – | – | – | – | – | – | – | – | – | 4.9 | 0.296 | 9.37
H-Y[Aib]QGT[αMePhe(2-F)]TSD[4Pal][αMeS]I[αMeL]LD[Orn]K([γGlu-γGlu-C18 diacid])AQ[Aib]QFI[dE][αMeY]LQEGGPSSGEPPPEGTGE-NH2 [Example 529] | 398 | 1.39 | 24.5 | 0.467 | 0.0273 | 6.59 | – | – | – | – | – | – | – | – | –
CC[C@H](C)[C@H](NC(=O)[C@H](CC(C)C)NC(=O)[C@H](Cc1ccc(O)cc1)NC(=O)[C@@H](CCC(=O)O)NC(=O)[C@@H](NC(=O)[C@H](Cc1ccccc1)NC(=O)[C@H](CC(N)=O)NC(=O)C(C)(C)NC(=O)[C@H](CCC(N)=O)NC(=O)[C@H](C)NC(=O)[C@H](CCCCNC(=O)CC[C@H](NC(=O)CC[C@H](NC(=O)CCCCCCCCCCCCCCCCC(=O)O)C(=O)O)C(=O)O)NC(=O)[C@H](CCCN)NC(=O)[C@H](CC(=O)O)NC(=O)[C@H](CC(C)C)NC(=O)[C@](C)(CC(C)C)NC(=O)[C@@H](NC(=O)[C@](C)(CO)NC(=O)[C@H](Cc1ccncc1)NC(=O)[C@H](CC(=O)O)NC(=O)[C@H](CO)NC(=O)[C@@H](NC(=O)[C@](C)(Cc1ccccc1F)NC(=O)[C@@H](NC(=O)CNC(=O)[C@H](CCC(N)=O)NC(=O)C(C)(C)NC(=O)[C@@H](N)Cc1ccc(O)cc1)[C@@H](C)O)[C@@H](C)O)[C@@H](C)CC)[C@@H](C)CC)C(=O)N[C@@H](CCC(=O)O)C(=O)NCC(=O)NCC(=O)N1CCC[C@H]1C(=O)N[C@@H](CO)C(=O)N[C@@H](CO)C(=O)NCC(=O)N[C@@H](CCC(=O)O)C(=O)N1CCC[C@H]1C(=O)N1CCC[C@H]1C(=O)N1CCC[C@H]1C(=O)N[C@@H](CCC(=O)O)C(N)=O [Example 449] (H-Y[Aib]QGT[αMePhe(2-F)]TSD[4Pal][αMeS]I[αMeL]LD[Orn]K([γGlu-γGlu-C18 diacid])AQ[Aib]NFI[dE]YLIEGGPSSGEPPPE-NH2) | 424 | 1.66 | 18.9 | 0.568 | 0.0205 | 11.5 | – | – | – | – | – | – | – | – | –
Y[Aib]QGT[αMePhe(2-F)]TSD[4Pal][αMeS]I[αMeL]LD[Orn]K([AEEA-γGlu-C18 diacid])AQ[αMe4Pal]EFI[dE][αMeY]LIEGGPSSGAPPPESE-NH2 [Example 1146] | 198 | 0.825 | 40.1 | – | – | – | – | – | – | – | – | – | 0.281 | 0.00628 | 1.22
H-Y[Aib]QGTFTSD[4Pal]S[Orn][αMeL]LDKK([γGlu-γGlu-C18 diacid])AQ[αMe4Pal]AFIE[αMe4Pal]LIEGGPSSGAPPPSGS-NH2 [Example 952] | 266 | 16.6 | 439 | – | – | – | – | – | – | – | – | – | 4.85 | 0.166 | 2.4
CC[C@H](C)[C@H](NC(=O)[C@H](Cc1ccccc1)NC(=O)[C@H](C)NC(=O)C(C)(C)NC(=O)[C@H](CCC(N)=O)NC(=O)[C@H](C)NC(=O)[C@H](CCCCNC(=O)COCCOCCNC(=O)CC[C@H](NC(=O)CCCCCCCCCCCCCCCCC(=O)O)C(=O)O)NC(=O)[C@H](CCCCN)NC(=O)[C@H](CC(=O)O)NC(=O)[C@H](CC(C)C)NC(=O)[C@](C)(CC(C)C)NC(=O)[C@@H](NC(=O)[C@H](CO)NC(=O)[C@H](Cc1ccc(O)cc1)NC(=O)[C@H](CC(=O)O)NC(=O)[C@H](CO)NC(=O)[C@@H](NC(=O)[C@](C)(Cc1ccccc1)NC(=O)[C@@H](NC(=O)CNC(=O)[C@H](CCC(N)=O)NC(=O)C(C)(C)NC(=O)[C@@H](N)Cc1ccc(O)cc1)[C@@H](C)O)[C@@H](C)O)[C@@H](C)CC)C(=O)N[C@@H](CCC(=O)O)C(=O)N[C@@H](Cc1ccc(O)cc1)C(=O)N[C@@H](CC(C)C)C(=O)N[C@@H](CCC(=O)O)C(=O)N[C@@H](CCC(=O)O)C(=O)NCC(=O)NCC(=O)N1CCC[C@H]1C(=O)N[C@@H](CO)C(=O)N[C@@H](CO)C(=O)NCC(=O)N[C@@H](C)C(=O)N1CCC[C@H]1C(=O)N1CCC[C@H]1C(=O)N1CCC[C@H]1C(=O)N[C@@H](CCC(=O)O)C(N)=O [Example 396] (H-Y[Aib]QGT[αMeF]TSDYSI[αMeL]LDKK([AEEA-γGlu-C18 diacid])AQ[Aib]AFIEYLEEGGPSSGAPPPE-NH2) | 468 | 9.5 | 38.2 | 0.293 | 0.024 | 4.99 | – | – | – | – | – | – | – | – | –
Y[Aib]QGT[αMePhe(2-F)]TSD[4Pal][αMeS]I[αMeL]LD[Orn]K([γGlu-γGlu-C18 diacid])AQ[Aib][Orn]FI[dE][αMeY]LQEGGPSSGEPPPSGTE-NH2 [Example 504] | 162 | 1.8 | 16.5 | 0.253 | 0.0364 | 2.83 | – | – | – | – | – | – | – | – | –
H-Y[Aib]QGTFTSD[4Pal]S[Orn][αMeL]LDKK([γGlu-γGlu-C18 diacid])AQ[αMe4Pal]AFIE[αMeY]LIAGGPSSGEPPPSGS-NH2 [Example 1014] | 277 | 5.62 | 86.4 | – | – | – | – | – | – | – | – | – | 0.718 | 0.0412 | 3.62
Y[Aib]QGTFTSD[4Pal]SQ[αMeL]LDKK([AEEA-γGlu-C18 diacid])AQ[αMe4Pal]AFIEWLIEGGPSSGAPPPSG[4Pal]-NH2 [Example 832] | 1360 | 18.6 | 209 | – | – | – | – | – | – | – | – | – | 1.07 | 0.187 | 9.1
H-Y[Aib]QGT[αMePhe(2-F)]TSD[4Pal][αMeS]I[αMeL]LD[Orn]K([γGlu-γGlu-C18 diacid])AQ[αMe4Pal]EFI[dE][αMeY]LIEGGPSSGEPPPSGE-NH2 [Example 1151] | 206 | 0.287 | 40 | – | – | – | – | – | – | – | – | – | 0.262 | 0.00339 | 1.31
